Calls of active or inactive are those of the source. The rule behind the calls is not given here.
How the values were obtained:
OVCAR-3 = experiment: Growth inhibition of human OVCAR3 cells at 10 uM by NCI-60 cell inhibition assay; assay type: functional; conditions: read-out: GI
OVCAR-4 = experiment: Growth inhibition of human OVCAR4 cells at 10 uM by NCI-60 cell inhibition assay; assay type: functional; conditions: read-out: GI
IGROV-1 = experiment: Growth inhibition of human IGROV1 cells at 10 uM by NCI-60 cell inhibition assay; assay type: functional; conditions: read-out: GI
UACC-257 = experiment: Growth inhibition of human UACC257 cells at 10 uM by NCI-60 cell inhibition assay; assay type: functional; conditions: read-out: GI
SK-MEL-5 = experiment: Growth inhibition of human SK-MEL-5 cells at 10 uM by NCI-60 cell inhibition assay; assay type: functional; conditions: read-out: GI
SK-MEL-28 = experiment: Growth inhibition of human SK-MEL-28 cells at 10 uM by NCI-60 cell inhibition assay; assay type: functional; conditions: read-out: GI
SK-MEL-2 = experiment: Growth inhibition of human SK-MEL-2 cells at 10 uM by NCI-60 cell inhibition assay; assay type: functional; conditions: read-out: GI
MDA-MB-435 = experiment: Growth inhibition of human MDA-MB-435 cells at 10 uM by NCI-60 cell inhibition assay; assay type: functional; conditions: read-out: GI
Malme-3M = experiment: Growth inhibition of human MALME-3M cells at 10 uM by NCI-60 cell inhibition assay; assay type: functional; conditions: read-out: GI
LOX IMVI = experiment: Growth inhibition of human LOXIMVI cells at 10 uM by NCI-60 cell inhibition assay; assay type: functional; conditions: read-out: GI
U-251 = experiment: Growth inhibition of human U251 cells at 10 uM by NCI-60 cell inhibition assay; assay type: functional; conditions: read-out: GI
SNB-75 = experiment: Growth inhibition of human SNB75 cells at 10 uM by NCI-60 cell inhibition assay; assay type: functional; conditions: read-out: GI
SF-539 = experiment: Growth inhibition of human SF539 cells at 10 uM by NCI-60 cell inhibition assay; assay type: functional; conditions: read-out: GI
SNB-19 = experiment: Growth inhibition of human SNB19 cells at 10 uM by NCI-60 cell inhibition assay; assay type: functional; conditions: read-out: GI
SF-268 = experiment: Growth inhibition of human SF268 cells at 10 uM by NCI-60 cell inhibition assay; assay type: functional; conditions: read-out: GI
KM12 = experiment: Growth inhibition of human KM12 cells at 10 uM by NCI-60 cell inhibition assay; assay type: functional; conditions: read-out: GI
SW-620 = experiment: Growth inhibition of human SW620 cells at 10 uM by NCI-60 cell inhibition assay; assay type: functional; conditions: read-out: GI
HCT-15 = experiment: Growth inhibition of human HCT15 cells at 10 uM by NCI-60 cell inhibition assay; assay type: functional; conditions: read-out: GI
HT-29 = experiment: Growth inhibition of human HT-29 cells at 10 uM by NCI-60 cell inhibition assay; assay type: functional; conditions: read-out: GI
COLO 205 = experiment: Growth inhibition of human COLO205 cells at 10 uM by NCI-60 cell inhibition assay; assay type: functional; conditions: read-out: GI
HCC 2998 = experiment: Growth inhibition of human HCC2998 cells at 10 uM by NCI-60 cell inhibition assay; assay type: functional; conditions: read-out: GI
NCI-H522 = experiment: Growth inhibition of human NCI-H522 cells at 10 uM by NCI-60 cell inhibition assay; assay type: functional; conditions: read-out: GI
NCI-H460 = experiment: Growth inhibition of human NCI-H460 cells at 10 uM by NCI-60 cell inhibition assay; assay type: functional; conditions: read-out: GI
NCI-H226 = experiment: Growth inhibition of human NCI-H226 cells at 10 uM by NCI-60 cell inhibition assay; assay type: functional; conditions: read-out: GI
HOP-92 = experiment: Growth inhibition of human HOP92 cells at 10 uM by NCI-60 cell inhibition assay; assay type: functional; conditions: read-out: GI
A549 = experiment: Growth inhibition of human A549/ATCC cells at 10 uM by NCI-60 cell inhibition assay; assay type: functional; conditions: read-out: GI
EKVX = experiment: Growth inhibition of human EKVX cells at 10 uM by NCI-60 cell inhibition assay; assay type: functional; conditions: read-out: GI
SR = experiment: Growth inhibition of human SR cells at 10 uM by NCI-60 cell inhibition assay; assay type: functional; conditions: read-out: GI
[1] = Growth inhibition of human […] cells at 10 uM by NCI-60 cell inhibition assay; assay type: functional; conditions: read-out: GI
MOLT-4 = experiment: Growth inhibition of human MOLT4 cells at 10 uM by NCI-60 cell inhibition assay; assay type: functional; conditions: read-out: GI
HL-60(TB) = experiment: Growth inhibition of human HL-60(TB) cells at 10 uM by NCI-60 cell inhibition assay; assay type: functional; conditions: read-out: GI
K562 = experiment: Growth inhibition of human K562 cells at 10 uM by NCI-60 cell inhibition assay; assay type: functional; conditions: read-out: GI
CCRF-CEM = experiment: Growth inhibition of human CCRF-CEM cells at 10 uM by NCI-60 cell inhibition assay; assay type: functional; conditions: read-out: GI
[2] = Stability in cell culture medium without serum assessed as compound recovery after 72 hrs; assay type: physicochemical; conditions: read-out: Stability
U-373MG ATCC = experiment: Inhibition of eIF2 activity in human U373 cells at 0.5 uM after 4 hrs by Western blotting method; assay type: functional, cell-based
Hs 683 [3] = experiment: Inhibition of eIF2 activity in human Hs683 cells at 0.5 uM after 4 hrs by Western blotting method; assay type: functional, cell-based
Mus musculus = species: Mus musculus; experiment: Toxicity in mouse assessed as drug tolerance; assay type: organism-based; conditions: in vivo
T47D = experiment: Growth inhibition of human T47D cells at 10 uM by NCI-60 cell inhibition assay; assay type: functional; conditions: read-out: GI
BT-549 = experiment: Growth inhibition of human BT549 cells at 10 uM by NCI-60 cell inhibition assay; assay type: functional; conditions: read-out: GI
MDA-MB-231 = experiment: Growth inhibition of human MDA-MB-231 cells at 10 uM by NCI-60 cell inhibition assay; assay type: functional; conditions: read-out: GI
MCF7 = experiment: Growth inhibition of human MCF7 cells at 10 uM by NCI-60 cell inhibition assay; assay type: functional; conditions: read-out: GI
DU-145 = experiment: Growth inhibition of human DU145 cells at 10 uM by NCI-60 cell inhibition assay; assay type: functional; conditions: read-out: GI
TK-10 = experiment: Growth inhibition of human TK10 cells at 10 uM by NCI-60 cell inhibition assay; assay type: functional; conditions: read-out: GI
SN12C = experiment: Growth inhibition of human SN12C cells at 10 uM by NCI-60 cell inhibition assay; assay type: functional; conditions: read-out: GI
CAKI-1 = experiment: Growth inhibition of human Caki1 cells at 10 uM by NCI-60 cell inhibition assay; assay type: functional; conditions: read-out: GI
ACHN = experiment: Growth inhibition of human ACHN cells at 10 uM by NCI-60 cell inhibition assay; assay type: functional; conditions: read-out: GI
A498 = experiment: Growth inhibition of human A498 cells at 10 uM by NCI-60 cell inhibition assay; assay type: functional; conditions: read-out: GI
786-0 = experiment: Growth inhibition of human 786-0 cells at 10 uM by NCI-60 cell inhibition assay; assay type: functional; conditions: read-out: GI
SK-OV-3 = experiment: Growth inhibition of human SKOV3 cells at 10 uM by NCI-60 cell inhibition assay; assay type: functional; conditions: read-out: GI
Hs 683 [4] = experiment: cells; conditions: Homo sapiens, Hs 683, 72 h
T98G = experiment: cells; conditions: Homo sapiens, 72 h
cells = conditions: Homo sapiens, U373 MG, 72 h

SMILES: Cc1c2c(cc[n+]1Cc1ccccc1)c1ccc(OCC3CCCCC3)cc1n2CC1CCCCC1.[Br-]
- inhibition of growth at 10 µM (OVCAR-3): -100%
- inhibition of growth at 10 µM (OVCAR-4): -94.3%
- inhibition of growth at 10 µM (IGROV-1): -70.6%
- inhibition of growth at 10 µM (UACC-257): -92.4%
- inhibition of growth at 10 µM (SK-MEL-5): -100%
- inhibition of growth at 10 µM (SK-MEL-28): -95.8%
- inhibition of growth at 10 µM (SK-MEL-2): -86.5%
- inhibition of growth at 10 µM (MDA-MB-435): -84.9%
- inhibition of growth at 10 µM (Malme-3M): -70.3%
- inhibition of growth at 10 µM (LOX IMVI): -95.6%
- inhibition of growth at 10 µM (U-251): -92.5%
- inhibition of growth at 10 µM (SNB-75): -87.3%
- inhibition of growth at 10 µM (SF-539): -85.2%
- inhibition of growth at 10 µM (SNB-19): -90.7%
- inhibition of growth at 10 µM (SF-268): -98.7%
- inhibition of growth at 10 µM (KM12): -99.9%
- inhibition of growth at 10 µM (SW-620): -96.6%
- inhibition of growth at 10 µM (HCT-15): -81.7%
- inhibition of growth at 10 µM (HT-29): -79%
- inhibition of growth at 10 µM (COLO 205): -95.2%
- inhibition of growth at 10 µM (HCC 2998): -93.2%
- inhibition of growth at 10 µM (NCI-H522): -84.5%
- inhibition of growth at 10 µM (NCI-H460): -93.4%
- inhibition of growth at 10 µM (NCI-H226): -89.1%
- inhibition of growth at 10 µM (HOP-92): -85.6%
- inhibition of growth at 10 µM (A549): -93.1%
- inhibition of growth at 10 µM (EKVX): -75.5%
- inhibition of growth at 10 µM (SR): -57.6%
- inhibition of growth at 10 µM [1]: -45.2%
- inhibition of growth at 10 µM (MOLT-4): -64.5%
- inhibition of growth at 10 µM (HL-60(TB)): -53.4%
- inhibition of growth at 10 µM (K562): -45.9%
- inhibition of growth at 10 µM (CCRF-CEM): -36.2%
- remaining at 72 h [2]: > 95%
- inhibition (U-373MG ATCC): inactive
- inhibition (Hs 683 [3]): inactive
- Activity (Mus musculus): Toxic
- inhibition of growth at 10 µM (T47D): -74.1%
- inhibition of growth at 10 µM (BT-549): -91%
- inhibition of growth at 10 µM (MDA-MB-231): -92%
- inhibition of growth at 10 µM (MCF7): -92.3%
- inhibition of growth at 10 µM (DU-145): -100%
- inhibition of growth at 10 µM (TK-10): -93.6%
- inhibition of growth at 10 µM (SN12C): -91.9%
- inhibition of growth at 10 µM (CAKI-1): -92.5%
- inhibition of growth at 10 µM (ACHN): -100%
- inhibition of growth at 10 µM (A498): -97.4%
- inhibition of growth at 10 µM (786-0): -91.3%
- inhibition of growth at 10 µM (SK-OV-3): -53.4%
- IC50 (Hs 683 [4]): 380 nM
- IC50 (T98G): 160 nM
- IC50 (cells): 370 nM

— ChEMBL document CHEMBL2163222 (J Med Chem, 2012)
